# Experimental data reported in PubChem BioAssay AID2060606 (Molecular Pharmacology Branch, DTP, NCI, 2025).
# Tested on: 922993-354-T-J3-PDC complex spheroids, viability, % test/control
# Test: Anticancer human tumor 922993-354-T-J3-PDC patient-derived endometrial carcinoma cell line growth inhibition [CLK]
# Details: for IC50: curve of first compound; for viability, T/C: stronger effect = lower value
# From the text: A high-throughput screen of multi-cell type tumor spheroids was designed to identify active combinations of […] and targeted small molecules. Complex spheroids include a stromal component modeled by human endothelial cells (HUVEC) and fibroblasts modeled by human mesenchymal stem cells (MSCs). The concentration ranges selected for each drug and investigational agent were based upon clinically achievable concentrations if the clinical Cmax of the agent was known.
# Compounds. The drugs and investigational agents: cirtuvivint (SM08502; NSC835563), CC-671 (NSC850746), vemurafenib (NSC761431), tapotoclax (NSC804041), sotorasib (NSC818433), adagrasib (NSC831453), MRTX-1133 (NSC836407), BAY2416964 (NSC825713), copanlisib (NSC816437), inavolisib (NSC800729), abemaciclib (NSC768073), osimertinib (NSC779217), entinostat (NSC756642), eltanexor (KPT-8602, NSC794443), venetoclax (NSC766270), ceralasertib (NSC777638), bortezomib (NSC756655), olaparib (NSC753686), talazoparib (NSC767125), alisertib (NSC759677), peposertib (NSC802822), gemcitabine (NSC613327), 5-fluorouracil (NSC19893), SN-38 (NSC673596), oxaliplatin (NSC266046), paclitaxel (NSC125973), and doxorubicin (NSC123127), were obtained from the National Cancer Institute (NCI) Developmental Therapeutics Program Chemical Repository. The FDA-approved anticancer drug set is available from the Developmental Therapeutics Program at https://dtp.cancer.gov/organization/dscb/obtaining/available plates.htm. […] The stock solutions were prepared in dimethyl sulfoxide (DMSO, Sigma-Aldrich, St. Louis, MO, cat. D2650), except for the platinum complexes which were prepared in saline (Quality Biological, Gaithersburg, MD, cat. 114-055-101), at 800-fold the tested concentration and stored at -70 degrees C prior to their use. All drugs and investigational agents were tested over a range starting from a high concentration at or near the clinical Cmax and decreasing in half-log increments. If the clinical Cmax for an agent had not been determined, the highest concentration tested was 10 microM.
# Cell Culture. All cells were maintained in an incubator at 37 degrees C and 5% CO2 with 95% humidity. The PDC lines were cultured according to standard operating procedures established by the NCI PDMR. Briefly, all PDCs were thawed and cultured in Matrigel-coated flasks prepared with a working solution of 1X Ham's F-12 nutrient mix, without supplementation (Invitrogen, Waltham, MA, cat. 11765054), 100 U/mL penicillin-streptomycin (Invitrogen, cat. 15140122), and 2.5% Matrigel (Corning Inc., Corning, NY, cat. 354248) for the first three passages. The 947758-054-R-J2-PDC line was cultured in 6B/Colon 1A media, which includes advanced DMEM/F-12 (Thermo Fisher Scientific, cat. 12634028), 10 mM HEPES (Thermo Fisher Scientific, cat. 15630080), 1X GlutaMAX supplement (Thermo Fisher Scientific, cat. 35050061), 0.1 mg/mL primocin (InvivoGen, cat. ant-pm-2), 10% defined fetal bovine serum, heat inactivated (HyClone Laboratories Inc., cat. SH30070.03HI), 1.25 mM N-Acetyl-L-cysteine (Sigma-Aldrich, cat. A9165), 10 mM nicotinamide (Sigma-Aldrich, cat. N0636), 1X B-27 supplement (Thermo Fisher Scientific, cat. 17504044), 1X N-2 supplement (Thermo Fisher Scientific, cat. 17502048), and 10 microM Y-27632 dihydrochloride (Tocris Bioscience, cat. 1254). The 876862-298-R-J1-PDC was cultured in 6E media, which includes all 6B/Colon 1A media components plus 50% L-WRN conditioned media (ATCC, cat. CRL-3276), 50 ng/mL recombinant human EGF recombinant protein (hEGF; Thermo Fisher Scientific, cat. PHG0311), 10 ng/mL recombinant human fibroblast growth factor 10 (hGFG-10; PeproTech, cat. 100-26), 1 ng/mL recombinant human fibroblast growth factor 2 (hFGF-2; PeproTech, cat. 100-18B), and 1 µM prostaglandin E2 (PGE2; Tocris, cat. 2296). The 227483-062-R1-J1-PDC line was cultured in Panc media, containing all 6E components except hFGF-2, with the addition of 500 nM SB-431542 (Selleckchem, cat. S1067) and 10 nM gastrin (Tocris, cat. 3006). […]
# [1] = second compound 0.0316 µM, first compound 0.0316 µM
# [2] = second compound 0.0316 µM, first compound 0.1 µM
# [3] = second compound 0.0316 µM, first compound 0.316 µM
# [4] = second compound 0.0316 µM, first compound 1 µM
# [5] = second compound 0.1 µM, first compound 0.0316 µM
# [6] = second compound 0.1 µM, first compound 0.1 µM
# [7] = second compound 0.1 µM, first compound 0.316 µM
# [8] = second compound 0.1 µM, first compound 1 µM
# [9] = second compound 0.316 µM, first compound 0.0316 µM
# [10] = second compound 0.316 µM, first compound 0.1 µM
# [11] = second compound 0.316 µM, first compound 0.316 µM
# [12] = second compound 0.316 µM, first compound 1 µM
# [13] = second compound 1 µM, first compound 0.0316 µM
# [14] = second compound 1 µM, first compound 0.1 µM
# [15] = second compound 1 µM, first compound 0.316 µM
# [16] = second compound 1 µM, first compound 1 µM
# [17] = second compound 3.16 µM, first compound 0.0316 µM
# [18] = second compound 3.16 µM, first compound 0.1 µM
# [19] = second compound 3.16 µM, first compound 0.316 µM
# [20] = second compound 3.16 µM, first compound 1 µM
# [21] = second compound 10 µM, first compound 0.0316 µM
# [22] = second compound 10 µM, first compound 0.1 µM
# [23] = second compound 10 µM, first compound 0.316 µM
# [24] = second compound 10 µM, first compound 1 µM
# [25] = second compound 0.0316 µM, first compound 0.00316 µM
# [26] = second compound 0.0316 µM, first compound 0.01 µM
# [27] = second compound 0.1 µM, first compound 0.00316 µM
# [28] = second compound 0.1 µM, first compound 0.01 µM
# [29] = second compound 0.316 µM, first compound 0.00316 µM
# [30] = second compound 0.316 µM, first compound 0.01 µM
# [31] = second compound 1 µM, first compound 0.00316 µM
# [32] = second compound 1 µM, first compound 0.01 µM
# [33] = second compound 3.16 µM, first compound 0.00316 µM
# [34] = second compound 3.16 µM, first compound 0.01 µM
# [35] = second compound 10 µM, first compound 0.00316 µM
# [36] = second compound 10 µM, first compound 0.01 µM
# 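Further: spheroids exposed to the agents for 7 days before readout.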
smiles,measurement,setting,value
CC(Nc1ccc2c(c1)OCCn1cc(N3C(=O)OCC3C(F)F)nc1-2)C(N)=O (stereo unspecified) + CN1CCN(c2cc(C(=O)Nc3cc4cc(-c5cnn(C)c5)ccc4cn3)ccn2)CC1,IC50,second compound 0.0316 µM,2730 nM
same,IC50,second compound 0.1 µM,1120 nM
same,IC50,second compound 0.316 µM,59.6 nM
same,IC50,second compound 1 µM,< 31.6 nM
same,IC50,second compound 3.16 µM,< 31.6 nM
same,IC50,second compound 10 µM,< 31.6 nM
same,"viability, T/C",[1],110%
same,"viability, T/C",[2],105%
same,"viability, T/C",[3],84.8%
same,"viability, T/C",[4],67.8%
same,"viability, T/C","second compound 0.0316 µM, first compound 3.16 µM",48.7%
same,"viability, T/C","second compound 0.0316 µM, first compound 10 µM",25.6%
same,"viability, T/C",[5],109%
same,"viability, T/C",[6],97.6%
same,"viability, T/C",[7],91%
same,"viability, T/C",[8],50.3%
same,"viability, T/C","second compound 0.1 µM, first compound 3.16 µM",34.7%
same,"viability, T/C","second compound 0.1 µM, first compound 10 µM",27.2%
same,"viability, T/C",[9],49.6%
same,"viability, T/C",[10],55%
same,"viability, T/C",[11],28.7%
same,"viability, T/C",[12],23.4%
same,"viability, T/C","second compound 0.316 µM, first compound 3.16 µM",16.8%
same,"viability, T/C","second compound 0.316 µM, first compound 10 µM",6.83%
same,"viability, T/C",[13],0.15%
same,"viability, T/C",[14],0.13%
same,"viability, T/C",[15],1.42%
same,"viability, T/C",[16],0.08%
same,"viability, T/C","second compound 1 µM, first compound 3.16 µM",0.07%
same,"viability, T/C","second compound 1 µM, first compound 10 µM",1.09%
same,"viability, T/C",[17],0.09%
same,"viability, T/C",[18],0.57%
same,"viability, T/C",[19],0.75%
same,"viability, T/C",[20],0.83%
same,"viability, T/C","second compound 3.16 µM, first compound 3.16 µM",1.91%
same,"viability, T/C","second compound 3.16 µM, first compound 10 µM",1.61%
same,"viability, T/C",[21],0.09%
same,"viability, T/C",[22],0.13%
same,"viability, T/C",[23],1.44%
same,"viability, T/C",[24],0.18%
same,"viability, T/C","second compound 10 µM, first compound 3.16 µM",1.19%
same,"viability, T/C","second compound 10 µM, first compound 10 µM",1.25%
CCN1CCN(Cc2ccc(Nc3ncc(F)c(-c4cc(F)c5nc(C)n(C(C)C)c5c4)n3)nc2)CC1 + CN1CCN(c2cc(C(=O)Nc3cc4cc(-c5cnn(C)c5)ccc4cn3)ccn2)CC1,IC50,second compound 0.0316 µM,> 1000 nM
same,IC50,second compound 0.1 µM,> 1000 nM
same,IC50,second compound 0.316 µM,< 3.16 nM
same,IC50,second compound 1 µM,< 3.16 nM
same,IC50,second compound 3.16 µM,< 3.16 nM
same,IC50,second compound 10 µM,< 3.16 nM
same,"viability, T/C",[25],106%
same,"viability, T/C",[26],110%
same,"viability, T/C",[1],87.4%
same,"viability, T/C",[2],83.3%
same,"viability, T/C",[3],58.9%
same,"viability, T/C",[4],57.3%
same,"viability, T/C",[27],88.1%
same,"viability, T/C",[28],91.8%
same,"viability, T/C",[5],75.8%
same,"viability, T/C",[6],66.4%
same,"viability, T/C",[7],58.8%
same,"viability, T/C",[8],60.5%
same,"viability, T/C",[29],46.5%
same,"viability, T/C",[30],37%
same,"viability, T/C",[9],34.4%
same,"viability, T/C",[10],37%
same,"viability, T/C",[11],36.4%
same,"viability, T/C",[12],38.6%
same,"viability, T/C",[31],0.13%
same,"viability, T/C",[32],0.79%
same,"viability, T/C",[13],0.77%
same,"viability, T/C",[14],0.13%
same,"viability, T/C",[15],1.01%
same,"viability, T/C",[16],0.64%
same,"viability, T/C",[33],0.1%
same,"viability, T/C",[34],1.24%
same,"viability, T/C",[17],0.11%
same,"viability, T/C",[18],0.13%
same,"viability, T/C",[19],0.16%
same,"viability, T/C",[20],0.84%
same,"viability, T/C",[35],0.13%
same,"viability, T/C",[36],0.16%
same,"viability, T/C",[21],1.7%
same,"viability, T/C",[22],0.15%
same,"viability, T/C",[23],2.3%
same,"viability, T/C",[24],2.5%
COc1c(OCCCN2CCOCC2)ccc2c3n(c(=NC(=O)c4cnc(N)nc4)nc12)CCN3 + CN1CCN(c2cc(C(=O)Nc3cc4cc(-c5cnn(C)c5)ccc4cn3)ccn2)CC1,IC50,second compound 0.0316 µM,148 nM
same,IC50,second compound 0.1 µM,151 nM
same,IC50,second compound 0.316 µM,< 3.16 nM
same,IC50,second compound 1 µM,< 3.16 nM
same,IC50,second compound 3.16 µM,< 3.16 nM
same,IC50,second compound 10 µM,< 3.16 nM
same,"viability, T/C",[25],112%
same,"viability, T/C",[26],116%
same,"viability, T/C",[1],86.5%
same,"viability, T/C",[2],59.7%
same,"viability, T/C",[3],32.2%
same,"viability, T/C",[4],9.62%
same,"viability, T/C",[27],91.7%
same,"viability, T/C",[28],99.9%
same,"viability, T/C",[5],89.9%
same,"viability, T/C",[6],58.1%
same,"viability, T/C",[7],32.4%
same,"viability, T/C",[8],12.1%
same,"viability, T/C",[29],48.1%
same,"viability, T/C",[30],47.9%
same,"viability, T/C",[9],39.8%
same,"viability, T/C",[10],18.8%
same,"viability, T/C",[11],6.2%
same,"viability, T/C",[12],2.87%
same,"viability, T/C",[31],0.13%
same,"viability, T/C",[32],1.13%
same,"viability, T/C",[13],0.12%
same,"viability, T/C",[14],0.08%
same,"viability, T/C",[15],1.11%
same,"viability, T/C",[16],0.77%
same,"viability, T/C",[33],0.42%
same,"viability, T/C",[34],0.12%
same,"viability, T/C",[17],0.38%
same,"viability, T/C",[18],0.15%
same,"viability, T/C",[19],1.16%
same,"viability, T/C",[20],1.38%
same,"viability, T/C",[35],0.08%
same,"viability, T/C",[36],0.15%
same,"viability, T/C",[21],1.41%
same,"viability, T/C",[22],0.15%
same,"viability, T/C",[23],3.12%
same,"viability, T/C",[24],2.42%
